{"source": "paper PMC6104039", "about": "(Nature Communications, 2018)", "key": {"[1]": {"test_system": "SkM", "experiment": "Lipidomic profiling of skeletal muscle (quadriceps) of mice on chow or HFD", "assay_type": "in vivo", "description": "Male C57BL6/J mice were obtained from the Animal Resources Centre in Perth (WA, Australia). […] Treatment was commenced at the same time as mice were randomised to dietary groups. The experiments were approved by the UNSW animal care and ethics committee (ACEC 15/48B), and followed guidelines issued by the National Health and Medical Research Council of Australia.\nLipids were extracted from frozen tissue samples or cells using a two-phase procedure with methyl-tert-butyl ether (MTBE)/methanol/water (10:3:2.5, v/v/v)[67]. Frozen tissue samples (~20 mg) were homogenized in 0.2 mL methanol containing 0.01% butylated hydroxytoluene (BHT), using a Precellys 24 homogenizer and Cryolys cooling unit (Bertin Technologies) with CK14 (1.4-mm ceramic) beads. The homogenates were spiked with an internal standard mixture comprising 5 nmole 19:0/19:0 phosphatidylcholine and 2 nmole each of 17:0/17:0 phosphatidylethanolamine, 17:0/17:0 phosphatidylserine, 17:0/17:0 d5-diacylglycerol, 17:0/17:0 phosphatidylglycerol, 14:0/14:0/14:0/14:0 cardiolipin, 18:1/12:0 SM, 18:1/17:0 ceramide, 18:1/12:0 glucosylceramide, 18:1/12:0 lactosylceramide, 18:1/12:0 sulfatide (all from Avanti Polar Lipids, USA), and 17:0/17:0/17:0 TAG (Cayman Chemical, USA), then transferred to 10 mL screw cap glass tubes. The homogenization tubes containing beads were then washed with another 0.3 mL methanol, and this wash was combined with the first methanol extract, after which 1.7 mL MTBE was added and the samples were sonicated in an ice-cold sonicating water bath (Thermoline Scientific, Australia) for 30 min. Phase separation was induced by addition of 417 µL of mass spectrometry-grade water followed by vortexing and centrifugation at 1000 × g for 10 min. The upper organic phase was collected into 5 mL glass tubes. The lower phase was re-extracted by adding 1 mL MTBE, 300 μL methanol, and 250 μL water. The organic phases were combined in the 5 mL glass tubes and dried under vacuum in a Savant SC210 SpeedVac (Thermo Scientific), then reconstituted in 500 μL methanol and stored at −20 °C until analysis.\nLipidomic profiling was performed on a QExactive Plus mass spectrometer with heated electrospray ionization (HESI) probe and a Dionex UltiMate 2000 LC pump (Thermo Fisher Scientific). Extracts were resolved on a 2.1 × 100 mm Waters Acquity C18 UPLC column (1.7 µm […]), using a binary gradient in which mobile phase A consisted of acetonitrile:water (60:40), 10 mM ammonium formate, 0.1% formic acid; and mobile phase B was isopropanol:acetonitrile (90:10), 10 mM ammonium formate, 0.1% formic acid[68]. The flow rate was 260 µL/min and column oven 55 °C. Data was acquired in full scan/data-dependent MS^2 mode (full scan resolution 70,000 FWHM, scan range 400–1200 m/z). The ten most abundant ions in each cycle were subjected to MS^2 using an isolation window of 1.4 m/z, collision energy 30 eV, resolution 17,500, maximum integration time 110 ms and dynamic exclusion window 10 s. An exclusion list of background ions was used based on a solvent blank. LipidSearch v4.1.30 software (ThermoFisher Scientific) was used for chromatogram alignment, peak identification and integration. Each lipid peak was manually verified for column elution time and characteristic fragment ions. Data were then exported to an Excel spreadsheet for normalisation of each lipid to its class-specific internal standard, and lipid concentrations were calculated relative to the internal standard.\nData were log transformed, then subjected to two-tailed t-tests adjusted for multiple comparisons using GraphPad PRISM (Benjamini, Krieger and Yekutieli correction, Q = 1%)."}, "[2]": {"test_system": "SkM", "experiment": "Real-time PCR of respiratory complex subunits and regulators of mitochondrial biogenesis in SkM", "assay_type": "in vivo, mice", "method": "PCR (40 cycles) was performed on a LightCycler 480 (Roche) using SensiFAST SYBR mastermix (Bioline). For quantification of CerS1 and CerS2 expression, total RNA was purified from mouse tissues with TRIzol reagent (Sigma-Aldrich), followed by DNase treatment (Promega), and reverse transcribed using random hexamer primers with FirstStrand cDNA synthesis kit (Roche), according to manufacturer’s instructions. CerS1 and CerS2 gene expression was determined using a standard curve of Ct against input cDNA, and normalised to 18s RNA. For mitochondrial genes and transcriptional regulators in SkM, total RNA was prepared with TRIzol, and oligo dT primer was used for reverse transcription. Relative gene expression was determined using the ΔΔCt method, with 36B4 and Rpl13 as the reference genes. Samples with excessively high Ct values (Ct > 30 for the housekeeping genes) were removed from data analysis (two samples for Fig. 6a, four samples for Fig. 6g). Gene-specific primers were as follows: […]"}, "[3]": {"test_system": "PPAR alpha", "experiment": "PMP70 protein expression in liver lysates (PPAR alpha agonism)", "assay_type": "in vivo, mice", "from_the_text": "For PPAR alpha we have examined the protein expression of\nPMP70 (an abundant peroxisomal m embrane protein) in liver lysates, as PPAR alpha is much more\nhighly expressed in liver and we have clear evidence (Supplementary Fig 6) that P053 distributes\ninto liver at levels that are higher that those present in skeletal muscle.\ntreated with a known PPAR alpha agonist WY14643 (WY) vs. vehicle (veh) controls shown on the\nright of the gel as positive controls."}, "[4]": {"details": "Muscle lipidomic data, Chow Vehicle vs Chow P053, Mean1 minus Mean2"}, "[5]": {"details": "Muscle lipidomic data, Chow Vehicle vs Chow P053, Mean2 = Chow P053 group"}, "[6]": {"details": "Muscle lipidomic data, HFD Vehicle vs HFD P053, Mean1 minus Mean2"}, "[7]": {"details": "Muscle lipidomic data, HFD Vehicle vs HFD P053, Mean2 = HFD P053 group"}}, "note": "Where “and” joins values, the source holds several entries; their conditions need not be identical. Identical values can stand only once. Entries after “also recorded” stand apart in the source; their conditions may differ.", "data": [{"compound": "C[C@@](N)(CO)CCc1ccc(OCc2ccc(Cl)c(Cl)c2)cc1", "note": "[P053, (S)-2-amino-4-(4-(3,4-dichlorobenzyloxy)phenyl)-2-methylbutan-1-ol]", "values": [{"measurement": "SM 36:2 content of skeletal muscle", "setting": "[1]; HFD + P053, individual mice", "result": "2.88 and 7.47 and 1.66 and 1.87 and 1.75 and 5.22 and 2.66 and 6.56 and 8.38 and 7.06 and 6.58 and 7.04 and 4.61 and 3.90 and 3.95 and 6.89 and 4.71 and 5.16 and 4.33"}, {"measurement": "SM 38:1 content of skeletal muscle", "setting": "[1]; HFD + P053, individual mice", "result": "11.48 and 13.05 and 11.02 and 10.80 and 17.24 and 10.17 and 15.13 and 9.50 and 12.28 and 0.77 (2×) and 0.82 and 1.11 and 0.80 and 0.71 (2×) and 0.68 and 0.83 and 0.73"}, {"measurement": "SM 40:1 content of skeletal muscle", "setting": "[1]; HFD + P053, individual mice", "result": "27.34 and 27.26 and 26.32 and 23.00 and 31.62 and 23.79 and 31.23 and 22.04 and 24.26 and 29.13 and 27.02 and 34.08 and 33.01 and 18.95 and 25.13 and 25.49 and 34.47 and 24.05 and 33.50"}, {"measurement": "SM 40:2 content of skeletal muscle", "setting": "[1]; HFD + P053, individual mice", "result": "1.78 and 2.91 (2×) and 1.98 and 2.11 and 2.83 and 1.89 and 2.53 and 1.77 and 2.29 and 2.59 and 3.38 and 2.49 and 1.96 and 2.67 and 2.64 and 2.84 and 2.34 and 2.94"}, {"measurement": "SM 42:1 content of skeletal muscle", "setting": "[1]; HFD + P053, individual mice", "result": "15.46 and 16.53 and 18.68 and 19.65 and 22.92 and 14.56 and 23.18 and 14.90 and 18.70 and 19.26 and 17.69 and 25.18 and 22.26 and 12.72 and 19.43 and 19.06 and 23.08 and 18.56 and 31.22"}, {"measurement": "SM 42:2 content of skeletal muscle", "setting": "[1]; HFD + P053, individual mice", "result": "53.70 and 57.56 and 54.97 and 42.97 and 63.03 and 48.46 and 60.01 and 50.89 and 52.69 and 51.87 and 48.15 and 70.42 and 61.77 and 37.14 and 54.20 and 54.85 and 64.93 and 49.70 and 71.83"}, {"measurement": "SM 42:3 content of skeletal muscle", "setting": "[1]; HFD + P053, individual mice", "result": "9.08 and 11.26 and 8.06 and 8.54 and 12.73 and 9.01 and 12.20 and 10.73 and 15.91 and 12.10 and 11.91 and 13.64 and 11.55 and 7.81 and 10.86 and 9.89 and 12.79 and 9.17 and 13.47"}, {"measurement": "reduction of most triacylglycerol (TAG) species in SkM", "setting": "[1]; HFD + P053 compared to HFD + vehicle", "result": "more than 50%"}, {"measurement": "Cer(d18:1/18:0)+H, Difference", "setting": "[1]; [4]", "result": 0.4848}, {"measurement": "Cer(d18:2/18:0)+H, Difference", "setting": "[1]; [4]", "result": 0.6042}, {"measurement": "Cer(d18:1/18:0)+H, Mean2", "setting": "[1]; [5]", "result": 2.896}, {"measurement": "Cer(d18:2/18:0)+H, Mean2", "setting": "[1]; [5]", "result": 0.4179}, {"measurement": "Cer(d18:1/18:0)+H, Difference", "setting": "[1]; [6]", "result": 0.7206}, {"measurement": "Cer(d18:1/22:0)+H, Difference", "setting": "[1]; [6]", "result": -0.3135}, {"measurement": "Cer(d18:1/24:0)+H, Difference", "setting": "[1]; [6]", "result": -0.4027}, {"measurement": "Cer(d18:1/24:1)+H, Difference", "setting": "[1]; [6]", "result": -0.3555}, {"measurement": "Cer(d18:2/18:0)+H, Difference", "setting": "[1]; [6]", "result": 0.8901}, {"measurement": "SM(d41:1)+H, Difference", "setting": "[1]; [6]", "result": -0.3059}, {"measurement": "SM(d42:2)+H, Difference", "setting": "[1]; [6]", "result": -0.2817}, {"measurement": "Cer(d18:1/18:0)+H, Mean2", "setting": "[1]; [7]", "result": 2.811}, {"measurement": "Cer(d18:1/22:0)+H, Mean2", "setting": "[1]; [7]", "result": 0.3563}, {"measurement": "Cer(d18:1/24:0)+H, Mean2", "setting": "[1]; [7]", "result": 0.4756}, {"measurement": "Cer(d18:1/24:1)+H, Mean2", "setting": "[1]; [7]", "result": 1.172}, {"measurement": "Cer(d18:2/18:0)+H, Mean2", "setting": "[1]; [7]", "result": 0.1066}, {"measurement": "SM(d41:1)+H, Mean2", "setting": "[1]; [7]", "result": 1.941}, {"measurement": "SM(d42:2)+H, Mean2", "setting": "[1]; [7]", "result": 3.999}, {"measurement": "DG levels in SkM", "setting": "[1]; chow or HFD", "result": "does not affect; also recorded: unaffected"}, {"measurement": "SkM TAG levels", "setting": "[1]; normal chow", "result": "did not affect"}, {"measurement": "C18 ceramide levels in SkM", "setting": "[1]; pilot study, 7 days, 1 mg/kg/day", "result": "no effect"}, {"measurement": "reduction of C18 ceramide levels in SkM", "setting": "[1]; pilot study, 7 days, 5 mg/kg/day", "result": 31, "unit": "%"}, {"measurement": "expression of Gabp1α and Nfe2l2", "setting": "[2]", "result": "significantly increased"}, {"measurement": "genes encoding respiratory complex subunits (Co-2, Cytb, Atp6, Ndufb5, Atp5o, Cycs, Cox5b)", "setting": "[2]", "result": "significant up-regulation"}, {"measurement": "expression of PMP70", "setting": "[3]", "result": "unaffected"}]}]}
